Counter-ions that a name gives are not always drawn.
Columns and labels:
GADPH = test: RT-PCR control: expression of constitutive enzyme GADPH; assay type: cell-based, human; details: housekeeping gene control in RT-PCR
Protocol: Total RNA from the preparations described above was used as a template for the generation of complementary DNA (cDNA). This was accomplished through the use of commercial RT-PCR kits (Gibco/BRL/Life Technologies, Inc., Rockville, Md.). The gene for the HIV gp41 transmembrane envelope glycoprotein was amplified from the RT products through the use of the following PCR cycling conditions: 94 degrees Celsius for 2 minutes followed by 52 degrees Celsius for 1 minutes then followed by 32 cycles at 94 degrees Celsius for 1 minutes, 52 degrees Celsius for 1 minutes, 72 degrees Celsius for […], then PCR extension was accomplished at 72 degrees Celsius for 10 minutes. The cycles were then ended by incubation at 4 degrees Celsius for 16 hours. […] (microliters) of PCR products were then loaded onto a 1.5% agarose gel containing 5 μg/ml of ethidium bromide. Bands in the gel with a size of 1.2 kb was considered to be gp41 based upon the primers used in the assay: Primer Sequences are as follows: Sense: 5 prime-[…]-3 prime (SEQ ID NO:1); Antisense 5 prime-[…]-3 prime (SEQ ID NO:2). In order to eliminate the possibility that the drug treatments could have an inhibitory effect on the RT used in the RT-PCR reaction rather than the HIV RT a constitutive (i.e. always expressed) enzyme called GADPH was used as a control. […]

[1] = tested on: HIV gp41 transmembrane envelope glycoprotein RNA; test: RT-PCR of gp41 RNA from HIV infected target cells; assay type: cell-based, HIV-MN; details: different molar concentrations, hydrochloride
Source text: Total RNA from the preparations described above was used as a template for the generation of complementary DNA (cDNA). This was accomplished through the use of commercial RT-PCR kits (Gibco/BRL/Life Technologies, Inc., Rockville, Md.). […]

[2] = tested on: HIV-1 gp120 (external envelope glycoprotein); test: Immunoblot (Western blot) of gp120 in lysates of HIV infected Supt 1 cells; assay type: cell-based, HIV-1MN
Protocol: The expression of the essential HIV coat protein gp120 is measured by this technique. Western Blot analysis of gp120 detected with a murine anti-gp120 monoclonal antibody from HIV-1 infected cells treated with naloxone or AZT. HIV-MN infected Supt 1 cells treated will different molar concentrations of naloxone or AZT. Cells were lysed at 3 days after infection of the cells with cell free HIV-1MN and 100 μg of the lysate was loaded onto SDS-PAGE, transferred onto a Hybond ECL membrane and detected with an anti-gp120 monoclonal antibody. VC=viral control (infected cells with no drug treatment).
200TCID-50 per milliliter (tissue culture infectious dose) of HIV-MN cell free virus was used to infect 500,000/milliliter of a human T cell line (called SupTI) in the presence (at a range of concentrations) or absence (control) of naloxone-HC1/or AZT. The TCID-50 is an amount of virus which will infect 50% of non-infected target cells. The virus+cells+drugs (naloxone or AZT) were incubated at 37 degrees Celsius in an atmosphere of 5% carbon dioxide for three days. Cells were lysed by using a detergent 1% Triton-X100. This preparation was frozen in liquid nitrogen and thawed at 37 degrees Celsius for three cycles. The preparation was vortexed vigorously for 20 seconds at the end of each cycle. Samples were then stored at −80 degrees Celsius until analysis. […]

recombinant RT = target: T1, recombinant RT (Human immunodeficiency virus type 1 group M subtype B, UniProt P04585); test: Effect on recombinant RT; assay type: biochemical; details: different molar concentrations; protein not within the HIV viral lysate
T1 construct: effect of different molar concentrations of naloxone on recombinant RT

[3] = tested on: reverse transcriptase activity in HIV-MN infected Supt 1 cells; test: RT activity assay on lysates of HIV-MN infected, drug-treated Supt 1 cells; assay type: cell-based
Protocol: 200TCID-50 per milliliter (tissue culture infectious dose) of HIV-MN cell free virus was used to infect 500,000/milliliter of a human T cell line (called SupTI) in the presence (at a range of concentrations) or absence (control) of naloxone-HC1/or AZT. The TCID-50 is an amount of virus which will infect 50% of non-infected target cells. The virus+cells+drugs (naloxone or AZT) were incubated at 37 degrees Celsius in an atmosphere of 5% carbon dioxide for three days. Cells were lysed by using a detergent 1% Triton-X100. This preparation was frozen in liquid nitrogen and thawed at 37 degrees Celsius for three cycles. The preparation was vortexed vigorously for 20 seconds at the end of each cycle. Samples were then stored at −80 degrees Celsius until analysis. Total RNA from the samples were prepared by using the Tri-reagent assay and aliquoted and stored at −80 degrees Celsius until RT-PCR (reverse transcriptase-polymerase chain reaction) analysis.
A 96 well microplate was coated with 200 μl/well of a 40 mg/ml solution of polyA and incubated at room temperature overnight with rocking. […] The color reaction in the wells was measured spectrophotometrically. Color development was proportional to the amount of RT in the wells and quantitation was made based upon a standard curve of using recombinant RT. […]

Compound: C=CCN1CC[C@]23c4c5ccc(O)c4O[C@H]2C(=O)CC[C@@]3(O)[C@H]1C5 [naloxone, naloxone hydrochloride]
- effect of drug treatment on expression of GADPH (GADPH): No effect
- expression of RNA for envelope glycoprotein gp41 (RT-PCR) [1]: inhibiting expression of RNA for the envelope glycoprotein gp41
- expression of RNA for envelope glycoprotein gp41 (RT-PCR) ([1]; listed as Naloxone): significantly depress expression
- expression of gp120 protein (Western blot) ([2]; HIV infected lymphocytes): significantly depress expression
- inhibition of HIV as measured by gp120 expression, compared with AZT ([2]; equivalent molar concentrations, cells lysed 3 days after infection): as effective, or more effective, than equivalent molar concentrations of AZT
- effect on recombinant RT (recombinant RT): direct inhibitory effect on RT
- inhibition of RT activity in HIV infected cells compared with AZT ([3]; identical molar dose range of AZT): at least as effective as AZT
- RT activity in HIV-MN infected Supt 1 cells ([3]; treatment dose increasing from 10^-11 to 10^-4 M, 3 days, vs no drug control): RT activity decreases

Reference: patent US8067430B1, “Anti-HIV activity of the opioid antagonist naloxone” (University of South Florida, priority 2003, dated 2011)
